From PubChem BioAssay AID1259411 (Chemical Carcinogenesis Research Information System (CCRIS), 2018)
Calls of active or inactive are those of the source. The rule behind the calls is not given here.

System: rodent carcinogenicity bioassays, tumor incidence
Experiment: CCRIS carcinogenicity studies
Procedure, shortened: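 NCI-built, expert-reviewed records of carcinogenicity and related test outcomes (mutagenicity, tumor promotion/inhibition) compiled from published and report sources, historical span 1985-2011, not updated.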

C[N+](=O)[O-]
carcinogen call (Species: GUPPIE, Strain/Sex: FEMALE, Route: AQUARIUM WATER, Dose: 0, 10, 30, 70 MG/L FOR 16 MO (STUDY DURATION: 16 MO), Dose: 0, 10, 30, 70 MG/L FOR 16 MO (STUDY DURATION: 16 MO)): inactive; negative | carcinogen call (Species: MEDAKA, Strain/Sex: FEMALE, Route: AQUARIUM WATER, Dose: 0, 10, 20, 40 MG/L FOR 13 MO (STUDY DURATION: 13 MO), Dose: 0, 10, 20, 40 MG/L FOR 13 MO (STUDY DURATION: 13 MO)): inactive; negative | carcinogen call (Species: MEDAKA, Strain/Sex: MALE, Route: AQUARIUM WATER, Dose: 0, 10, 20, 40 MG/L FOR 13 MO (STUDY DURATION: 13 MO), Dose: 0, 10, 20, 40 MG/L FOR 13 MO (STUDY DURATION: 13 MO)): inactive; negative | carcinogen call (Species: MOUSE, Strain/Sex: B6C3F1/FEMALE, Route: INHALATION, Dose: 0, 188, 375, 750 PPM 6 HR/D 5 D/WK FOR 103 WK (STUDY DURATION: 105 WK), Dose: 0, 188, 375, 750 PPM 6 HR/D 5 D/WK FOR 103 WK (STUDY DURATION: 105 WK), Tumor Site: Type of Lesion: HARDERIAN GLAND: ADENOMA, LIVER: HEPATOCELLULAR ADENOMA, LUNG: ALVEOLAR/BRONCHIOLAR ADENOMA, ALVEOLAR/BRONCHIOLAR CARCIN, Tumor Site: Type of Lesion: HARDERIAN GLAND: ADENOMA, LIVER: HEPATOCELLULAR ADENOMA, LUNG: ALVEOLAR/BRONCHIOLAR ADENOMA, ALVEOLAR/BRONCHIOLAR CARCIN): active; positive | carcinogen call (Species: MOUSE, Strain/Sex: B6C3F1/MALE, Route: INHALATION, Dose: 0, 188, 375, 750 PPM 6 HR/D 5 D/WK FOR 103 WK (STUDY DURATION: 105 WK), Dose: 0, 188, 375, 750 PPM 6 HR/D 5 D/WK FOR 103 WK (STUDY DURATION: 105 WK), Tumor Site: Type of Lesion: HARDERIAN GLAND: CARCINOMA, ADENOMA, LUNG: ALVEOLAR/BRONCHIOLAR CARCINOMA): active; positive | carcinogen call (Species: RAT, Strain/Sex: F344/FEMALE, Route: INHALATION, Dose: 0, 94, 188, 375 PPM 6 HR/D 5 D/WK FOR 103 WK (STUDY DURATION: 104 WK), Dose: 0, 94, 188, 375 PPM 6 HR/D 5 D/WK FOR 103 WK (STUDY DURATION: 104 WK), Tumor Site: Type of Lesion: MAMMARY GLAND: FIBROADENOMA, CARCINOMA): active; positive | carcinogen call (Species: RAT, Strain/Sex: F344/MALE, Route: INHALATION, Dose: 0, 94, 188, 375 PPM 6 HR/D 5 D/WK FOR 103 WK (STUDY DURATION: 104 WK), Dose: 0, 94, 188, 375 PPM 6 HR/D 5 D/WK FOR 103 WK (STUDY DURATION: 104 WK)): inactive; negative | carcinogen call (Species: RAT, Strain/Sex: LONG-EVANS/FEMALE, Route: INHALATION, Dose: 0, 100, 200 PPM 7 HR/D 5 D/WK FOR 2 YR (STUDY DURATION: 2 YR), Dose: 0, 100, 200 PPM 7 HR/D 5 D/WK FOR 2 YR (STUDY DURATION: 2 YR)): inactive; negative | carcinogen call (Species: RAT, Strain/Sex: LONG-EVANS/MALE, Route: INHALATION, Dose: 0, 100, 200 PPM 7 HR/D 5 D/WK FOR 2 YR (STUDY DURATION: 2 YR), Dose: 0, 100, 200 PPM 7 HR/D 5 D/WK FOR 2 YR (STUDY DURATION: 2 YR)): inactive; negative

O=S1OCC2C(CO1)C1(Cl)C(Cl)=C(Cl)C2(Cl)C1(Cl)Cl (stereo not drawn)
carcinogen call (Species: MOUSE, Strain/Sex: B6C3F1/FEMALE, Route: ORAL, Dose: 0, 2.0, 3.9 PPM IN DIET, TWA, Dose: 0, 2.0, 3.9 PPM IN DIET, TWA): inactive; negative | carcinogen call (Species: MOUSE, Strain/Sex: NMRI/FEMALE, Route: ORAL, Dose: 0, 2, 6, 18 PPM IN THE DIET FOR 24 MO (STUDY DURATION: 24 MO), Dose: 0, 2, 6, 18 PPM IN THE DIET FOR 24 MO (STUDY DURATION: 24 MO)): inactive; negative | carcinogen call (Species: MOUSE, Strain/Sex: NMRI/MALE, Route: ORAL, Dose: 0, 2, 6, 18 PPM IN THE DIET FOR 24 MO (STUDY DURATION: 24 MO), Dose: 0, 2, 6, 18 PPM IN THE DIET FOR 24 MO (STUDY DURATION: 24 MO)): inactive; negative | carcinogen call (Species: Mouse, Strain/Sex: NMRI Hoe:NMRKf (SPF71)/Female (60/Group), Route: Oral, Dose: 0 (sesame oil), 2, 6, 18 ppm 97.1% endosulfan in diet for 24 mo, study duration 24 mo., Dose: 0 (sesame oil), 2, 6, 18 ppm 97.1% endosulfan in diet for 24 mo, study duration 24 mo.): inactive; negative | carcinogen call (Species: Mouse, Strain/Sex: NMRI Hoe:NMRKf (SPF71)/Male (60/Group), Route: Oral, Dose: 0 (sesame oil), 2, 6, 18 ppm 97.1% endosulfan in diet for 24 mo, study duration 24 mo., Dose: 0 (sesame oil), 2, 6, 18 ppm 97.1% endosulfan in diet for 24 mo, study duration 24 mo.): inactive; negative | carcinogen call (Species: RAT, Strain/Sex: OSBORNE-MENDEL/FEMALE, Route: ORAL, Dose: 0, 223, 445 PPM IN DIET, TWA, Dose: 0, 223, 445 PPM IN DIET, TWA): inactive; negative | carcinogen call (Species: RAT, Strain/Sex: SPRAGUE-DAWLEY/FEMALE, Route: ORAL, Dose: 0, 3, 7.5, 15, 75 PPM IN THE DIET FOR 104 WK (STUDY DURATION: 104 WK), Dose: 0, 3, 7.5, 15, 75 PPM IN THE DIET FOR 104 WK (STUDY DURATION: 104 WK)): inactive; negative | carcinogen call (Species: RAT, Strain/Sex: SPRAGUE-DAWLEY/MALE, Route: ORAL, Dose: 0, 3, 7.5, 15, 75 PPM IN THE DIET FOR 104 WK (STUDY DURATION: 104 WK), Dose: 0, 3, 7.5, 15, 75 PPM IN THE DIET FOR 104 WK (STUDY DURATION: 104 WK)): inactive; negative | carcinogen call (Species: Rat, Strain/Sex: Crl:CD (SD) BR/Female (50/Group), Route: Oral, Dose: 0, 3.0, 7.5, 15.0, 75.0 ppm in corn oil in diet for 104 wk, study duration 104 wk, Dose: 0, 3.0, 7.5, 15.0, 75.0 ppm in corn oil in diet for 104 wk, study duration 104 wk): inactive; negative | carcinogen call (Species: Rat, Strain/Sex: Crl:CD (SD) BR/Male (50/Group), Route: Oral, Dose: 0, 3.0, 7.5, 15.0, 75.0 ppm in corn oil in diet for 104 wk, study duration 104 wk, Dose: 0, 3.0, 7.5, 15.0, 75.0 ppm in corn oil in diet for 104 wk, study duration 104 wk): inactive; negative

OCc1c2ccccc2c2ccc3cccc4ccc1c2c43
carcinogen call (Species: MOUSE, Strain/Sex: B6C3F1/MALE, Route: INTRAPERITONEAL, Dose: 0, 0.0025, 0.005, 0.015 UMOL/G ONCE AT 12 DAYS OF AGE (STUDY DURATION: 10 MO), Dose: 0, 0.0025, 0.005, 0.015 UMOL/G ONCE AT 12 DAYS OF AGE (STUDY DURATION: 10 MO), Tumor Site: Type of Lesion: LIVER: HEPATOMA): active; positive | carcinogen call (Species: RAT, Strain/Sex: SPRAGUE-DAWLEY/FEMALE, Route: SUBCUTANEOUS, Dose: 0, 0.2 UMOL 3/WK FOR 20 DOSES (STUDY DURATION: 52 WK), Tumor Site: Type of Lesion: INJECTION SITE: SARCOMA): active; positive

CCCC[N+](=O)[O-]
carcinogen call (Species: RAT, Strain/Sex: F344/MALE, Route: GAVAGE, Dose: 0, 2 MMOL/KG BW 1/WK FOR 50 WK (STUDY DURATION: 83 WK)): inactive; negative

NC(=O)N(CCF)N=O
carcinogen call (Species: RAT, Strain/Sex: F344/MALE, Route: GAVAGE, Dose: 0, 1.75 MG/ML (TOTAL DOSE 0; 0.2 MMOL) IN 2 ML ETHYL ACETATE AND CORN OIL (1:2) 2/WK FOR 40 WK (STUDY DURATION: LIFETIME, Dose: 0, 1.75 MG/ML (TOTAL DOSE 0; 0.2 MMOL) IN 2 ML ETHYL ACETATE AND CORN OIL (1:2) 2/WK FOR 40 WK (STUDY DURATION: LIFETIME): inactive; negative | carcinogen call (Species: RAT, Strain/Sex: F344/MALE, Route: GAVAGE, Dose: 0, 1.75 MG/ML IN 0.2 ML ETHYL ACETATE AND CORN OIL 2/WK FOR 40 WK (STUDY DURATION: LIFESPAN), Tumor Site: Type of Lesion: FORESTOMACH: TUMOR): active; positive

CC(C)CCCCCCOC(=O)c1ccccc1C(=O)OCCCCCCC(C)C
carcinogen call (Species: RAT, Strain/Sex: F344/FEMALE, Route: ORAL, Dose: 0, 0.03, 0.3, 0.6% IN DIET FOR DURATION OF STUDY (STUDY DURATION: 24 MO), Dose: 0, 0.03, 0.3, 0.6% IN DIET FOR DURATION OF STUDY (STUDY DURATION: 24 MO)): inactive; negative | carcinogen call (Species: RAT, Strain/Sex: F344/MALE, Route: ORAL, Dose: 0, 0.03, 0.3, 0.6% IN DIET FOR DURATION OF STUDY (STUDY DURATION: 24 MO), Dose: 0, 0.03, 0.3, 0.6% IN DIET FOR DURATION OF STUDY (STUDY DURATION: 24 MO)): inactive; negative

CNNC (tested in a mixture with another compound)
carcinogen call (Species: RAT, Strain/Sex: CD-1/MALE, Route: INTRAPERITONEAL, Dose: 0, 10 MG/KG/WK FOR 4 WK (STUDY DURATION: 1 YEAR), Tumor Site: Type of Lesion: PANCREAS: ADENOCARCINOMA, COLON: ADENOCARCINOMA): active; positive

[O]=[Al][O][Si](=O)O[Si](=O)[O][Al]=[O]
carcinogen call (Species: Rat, Strain/Sex: Wistar/Female (48/group), Route: Intratracheal, Dose: 6 mg instillations of 0.01-0.03 um particles given as 10 or 20 doses wk 26, study duration 115 or 121 wk or no treatment, Tumor Site: Type of Lesion: Lung: Bronchiolo-alveolar adenoma (12/48 and 11/47 in experimental animals vs 1/46 control animals), bronchiolo-alveolar): active; positive
